How the values were obtained:
[1] = Metabolic stability in extensive metabolizer human liver microsomes with and without quinidine; type: in vitro ADME; conditions: for CLint scaled at 100 ng/mL / half-life at 100 ng/mL: human; for CLint scaled at 100 ng/mL / % Δ (D6-Dimemorfan/Dimemorfan) of t1/2 / Clint, app Ratio (D6-Dimemorfan/Dimemorfan) / Clint, app Ratio (respective to 0 concentration of Quinidine) / t1/2 Ratio (respective to 0 concentration of Quinidine): EM HLM; for half-life at 100 ng/mL: EM HLM 1.0 mg/mL, 100 ng/mL test compound, 60 min
Description: Individual donor with extensive metabolizer human liver microsomes (EM HLM) (20 mg/mL) with CYP2D6 activity of 957±19 pmol/mg protein/min, genotyped for CYP2D6 allelic variant-CYP2D6*1/*2x2, were obtained from Xenotech, LLC (Lenexa, Kans.). β-nicotinamide adenine dinucleotide phosphate, reduced form (NADPH), magnesium chloride (MgCl2), dimethyl sulfoxide (DMSO), acetonitrile (ACN), quinidine, and dextromethorphan (DM) were purchased from Sigma-Aldrich. Dimemorfan and d6-dimemorfan (Compound 100) were synthesized by Adesis, Inc.
1.0 mg/mL stock solutions of test compounds dextromethorphan (DM), dimemorfan, and d6-dimemorfan (Compound 100) were prepared in DMSO. The 1.0 mg/mL stock solutions were diluted to 10,000 ng/mL in acetonitrile (ACN). A 10 mM stock solution of quinidine was prepared in acetonitrile, which was then diluted further in acetonitrile to produce 20 μM, 10 μM, 5 μM, 2.5 μM, and 1.25 μM solutions of quinidine. The human liver microsomes were diluted to 1.25 mg/mL in 0.1 M potassium phosphate buffer, pH 7.4, containing 3 mM MgCl2. The diluted microsomes were added to wells of a 96-well deep-well polypropylene plate in triplicate. A 5 μL aliquot of each 10,000 ng/mL test compound was added to the microsomes, and the mixture was pre-warmed at 37° C. for 7 minutes, then a 5 μL aliquot of each quinidine solution was added (except in control wells where no quinidine was added). Reactions were initiated by addition of pre-warmed NADPH solution to the mixture. The final reaction volume was 0.5 mL and contained 1.0 mg/mL human liver microsomes, 100 ng/mL of test compound, 0.2, 0.1, 0.05, 0.025, 0.0125, or 0 μM of quinidine, and 2 mM NADPH in 0.1 M potassium phosphate buffer, pH 7.4, and 3 mM MgCl2. The reaction mixtures were incubated at 37° C., and 50 μL aliquots were removed at 0, 15, 30, and 60 minutes and added to shallow-well 96-well plates which contained 50 μL of ice-cold ACN with internal standard to stop the reactions. The plates were stored at 4° C. for 20 minutes after which 100 μL of water was added to the wells of the plate before centrifugation to pellet precipitated proteins. Supernatants were transferred to another 96-well plate and analyzed for amounts of parent remaining by LC-MS/MS using an Applied Bio-systems mass spectrometer. Amount of parent remaining was quantified via standard curve.
The in vitro till's for test compounds were calculated from the slopes of the linear regression of % parent remaining (1n) vs. incubation time relationship.
k=−[slope of linear regression of % parent remaining(ln) vs incubation time]
The apparent intrinsic clearance was calculated using the following equation:
CLint (mL/min/kg)=(0.693/in vitro t1/2) (Incubation Volume/mg of microsomes) • (45 mg microsomes/gram of liver) (20 gm of liver/kg b.w.)
Data analysis was performed using Microsoft Excel Software.

[2] = healthy human males; cited from earlier work
[3] = pH 7.4, with none (quinidine 0 µM, control), quinidine 0 μM
[4] = pH 7.4, with quinidine 0.0125 µM, quinidine 0.0125 μM
[5] = pH 7.4, with quinidine 0.025 µM, quinidine 0.025 μM
[6] = pH 7.4, with quinidine 0.05 µM, quinidine 0.05 μM
[7] = pH 7.4, with quinidine 0.1 µM, quinidine 0.1 μM
[8] = pH 7.4, with quinidine 0.2 µM, quinidine 0.2 μM

SMILES	CLint scaled at 100 ng/mL [1, 3] [mL/min/kg]	half-life at 100 ng/mL [1, 3] [min]	CLint scaled at 100 ng/mL [1, 4] [mL/min/kg]	half-life at 100 ng/mL [1, 4] [min]	CLint scaled at 100 ng/mL [1, 5] [mL/min/kg]	half-life at 100 ng/mL [1, 5] [min]	CLint scaled at 100 ng/mL [1, 6] [mL/min/kg]	half-life at 100 ng/mL [1, 6] [min]	CLint scaled at 100 ng/mL [1, 7] [mL/min/kg]	half-life at 100 ng/mL [1, 7] [min]	CLint scaled at 100 ng/mL [1, 8] [mL/min/kg]	half-life at 100 ng/mL [1, 8] [min]	Clint, app Ratio (respective to 0 concentration of Quinidine) ([1]; quinidine 0 μM)	t1/2 Ratio (respective to 0 concentration of Quinidine) ([1]; quinidine 0 μM)	Clint, app Ratio (respective to 0 concentration of Quinidine) ([1]; quinidine 0.0125 μM)	t1/2 Ratio (respective to 0 concentration of Quinidine) ([1]; quinidine 0.0125 μM)	Clint, app Ratio (respective to 0 concentration of Quinidine) ([1]; quinidine 0.025 μM)	t1/2 Ratio (respective to 0 concentration of Quinidine) ([1]; quinidine 0.025 μM)	Clint, app Ratio (respective to 0 concentration of Quinidine) ([1]; quinidine 0.05 μM)	t1/2 Ratio (respective to 0 concentration of Quinidine) ([1]; quinidine 0.05 μM)	also measured
[2H]C([2H])([2H])c1ccc2c(c1)[C@]13CCCC[C@@H]1[C@H](C2)N(C([2H])([2H])[2H])CC3 [D6-Dimemorfan]	48.2	6.5	30.9	10.1	23.6	13.2	17.3	18	10	31.1	8.2	37.9	1.0	1.0	0.64	1.6	0.49	2.0	0.36	2.8	% Δ (D6-Dimemorfan/Dimemorfan) of t1/2 ([1]; quinidine 0 μM): 35%; Clint, app Ratio (D6-Dimemorfan/Dimemorfan) ([1]; quinidine 0 μM): 0.74; % Δ (D6-Dimemorfan/Dimemorfan) of t1/2 ([1]; quinidine 0.0125 μM): 59%; Clint, app Ratio (D6-Dimemorfan/Dimemorfan) ([1]; quinidine 0.0125 μM): 0.61; % Δ (D6-Dimemorfan/Dimemorfan) of t1/2 ([1]; quinidine 0.025 μM): 3%; Clint, app Ratio (D6-Dimemorfan/Dimemorfan) ([1]; quinidine 0.025 μM): 0.96; % Δ (D6-Dimemorfan/Dimemorfan) of t1/2 ([1]; quinidine 0.05 μM): 11%; Clint, app Ratio (D6-Dimemorfan/Dimemorfan) ([1]; quinidine 0.05 μM): 0.90; % Δ (D6-Dimemorfan/Dimemorfan) of t1/2 ([1]; quinidine 0.1 μM): 22%; Clint, app Ratio (D6-Dimemorfan/Dimemorfan) ([1]; quinidine 0.1 μM): 0.82; Clint, app Ratio (respective to 0 concentration of Quinidine) ([1]; quinidine 0.1 μM): 0.21; t1/2 Ratio (respective to 0 concentration of Quinidine) ([1]; quinidine 0.1 μM): 4.8; % Δ (D6-Dimemorfan/Dimemorfan) of t1/2 ([1]; quinidine 0.2 μM): −12%; Clint, app Ratio (D6-Dimemorfan/Dimemorfan) ([1]; quinidine 0.2 μM): 1.11; Clint, app Ratio (respective to 0 concentration of Quinidine) ([1]; quinidine 0.2 μM): 0.17; t1/2 Ratio (respective to 0 concentration of Quinidine) ([1]; quinidine 0.2 μM): 5.8
COc1ccc2c(c1)[C@]13CCCC[C@@H]1[C@H](C2)N(C)CC3 [DM, (+)-3-methoxy-17-methyl-(9α,13α,14α)-morphinan]	15.4	20.5	12.1	25.6	10.6	29.6	9.5	33	7.4	42.1	4.8	64.5	1.0	1.0	0.79	1.2	0.69	1.4	0.62	1.6	Clint, app Ratio (respective to 0 concentration of Quinidine) ([1]; quinidine 0.1 μM): 0.48; t1/2 Ratio (respective to 0 concentration of Quinidine) ([1]; quinidine 0.1 μM): 2.1; Clint, app Ratio (respective to 0 concentration of Quinidine) ([1]; quinidine 0.2 μM): 0.31; t1/2 Ratio (respective to 0 concentration of Quinidine) ([1]; quinidine 0.2 μM): 3.1
Cc1ccc2c(c1)[C@]13CCCC[C@@H]1[C@H](C2)N(C)CC3 [Dimemorfan, (+)-(9α,13α,14α)-3,17-dimethylmorphinan]	64.9	4.81	50.8	6.34	24.7	12.8	19.3	16.2	12.2	25.5	7.4	43.1	1.0	1.0	0.78	1.3	0.38	2.7	0.30	3.4	fraction of a dose metabolized [2]: Greater than 98%; Clint, app Ratio (respective to 0 concentration of Quinidine) ([1]; quinidine 0.1 μM): 0.19; t1/2 Ratio (respective to 0 concentration of Quinidine) ([1]; quinidine 0.1 μM): 5.3; Clint, app Ratio (respective to 0 concentration of Quinidine) ([1]; quinidine 0.2 μM): 0.11; t1/2 Ratio (respective to 0 concentration of Quinidine) ([1]; quinidine 0.2 μM): 9.0

Source: patent US20180243290A1, “MORPHINAN COMPOUNDS FOR TREATING AGITATION” (Concert Pharmaceuticals, Inc., priority 2015, published 2018)
